Laboratory results taken from PMC7862291, “Full-length in meso structure and mechanism of rat kynurenine 3-monooxygenase inhibition” (Communications Biology, 2021).
Where “and” joins values, the source holds several entries; their conditions need not be identical. Identical values can stand only once.

Key:
[1] = molecular target: T1, HEK293 cells stably expressing human KMO (Homo sapiens, UniProt O15229); assay: Cell-based human KMO inhibition assay (LC/MS of 3-hydroxykynurenine)
T1 construct: expressed in transfected cells
T1 sequence (O15229 whole entry): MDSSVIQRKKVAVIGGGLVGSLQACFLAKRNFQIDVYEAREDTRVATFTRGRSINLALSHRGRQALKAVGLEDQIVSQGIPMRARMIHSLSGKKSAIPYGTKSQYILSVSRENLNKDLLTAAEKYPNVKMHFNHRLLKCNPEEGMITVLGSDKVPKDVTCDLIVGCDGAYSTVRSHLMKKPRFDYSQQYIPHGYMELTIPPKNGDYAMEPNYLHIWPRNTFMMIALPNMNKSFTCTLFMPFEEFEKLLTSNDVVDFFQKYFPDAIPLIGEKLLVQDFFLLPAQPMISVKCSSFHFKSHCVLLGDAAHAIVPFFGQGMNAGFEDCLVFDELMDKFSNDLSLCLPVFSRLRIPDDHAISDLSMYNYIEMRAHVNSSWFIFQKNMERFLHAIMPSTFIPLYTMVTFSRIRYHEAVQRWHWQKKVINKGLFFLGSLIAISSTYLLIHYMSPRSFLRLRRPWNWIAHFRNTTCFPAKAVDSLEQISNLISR
Protocol: (§1) HEK293 cells stably expressing human or rat KMO were maintained in DMEM containing 10% fetal bovine serum, 50 units/mL penicillin, 50 μg/mL streptomycin and 0.2 mg⁄mL zeocine. […] After 2 overnights, the medium was replaced with 10 μL/well of assay buffer (1 × HBSS containing 20 mM HEPES). Ten microliters per well of the diluted test compounds (final, 0–30 μM, 0.3% DMSO) were added to the respective wells. After ~30 min of pre-incubation at 37 °C, reactions were started by adding 20 μL of substrate solution containing 0.2 mM kynurenine. Reactions were run for 2 h at 37 °C, the assay buffer was discarded and the plate was immediately frozen and stored at −30 °C until LC/MS analysis.
(§2) An 80 µL volume of cold acetonitrile with 2% formic acid was added to the cell pellet in a 384-well plate and centrifuged at 3000 rpm for 10 min at 4 °C. A 40 µL volume of the supernatant was transferred to a new 384-well plate and evaporated to dryness under nitrogen gas at 45 °C. The residue was reconstituted in 100 µL of acetonitrile/water (10:90, v/v) with 0.1% formic acid, and 1 µL was injected into the LC-MS/MS system.
(§3) LC/MS/MS was performed on a Shimadzu UFLC Nexera X2 (Shimadzu Corporation, Japan) and an QTRAP® 5500 LC-MS/MS System (SCIEX, Framingham, USA). Chromatographic separation was performed using an Allure PFP Propyl analytical column (5 µm, 2.1 × 100 mm) maintained at 50 °C. The autosampler temperature was set at 15 °C. The mobile phase consisted of formic acid/water/acetonitrile/methanol (0.5/500/250/250, v/v/v/v) and the flow rate was set at 0.3 mL/min. 3-hydroxykynurenine was eluted from the LC column at a retention time of 1.2 min. The MS system was operated using electrospray ionization (ESI) in positive mode. The optimum conditions were curtain gas, 20 psi; ion spray voltage, 5500 V; heated nebulizer temperature (TEM), 700 °C; nebulizing gas (GS1), 70 psi; and heater gas (GS2), 70 psi. […] Analyst® software (SCIEX, Framingham, USA) was used for system control and MultiQuant™ Software (SCIEX, Framingham, USA) was used for data analysis.
(§4) Compound assays were analysed and plotted on graphs using Prism (GraphPad Software Inc. San Diego, CA, USA).

[2] = molecular target: T2, HEK293 cells stably expressing rat KMO (Rattus norvegicus, UniProt O88867); assay: Cell-based rat KMO inhibition assay (LC/MS of 3-hydroxykynurenine)
T2 construct: expressed in transfected cells
T2 sequence (O88867 whole entry): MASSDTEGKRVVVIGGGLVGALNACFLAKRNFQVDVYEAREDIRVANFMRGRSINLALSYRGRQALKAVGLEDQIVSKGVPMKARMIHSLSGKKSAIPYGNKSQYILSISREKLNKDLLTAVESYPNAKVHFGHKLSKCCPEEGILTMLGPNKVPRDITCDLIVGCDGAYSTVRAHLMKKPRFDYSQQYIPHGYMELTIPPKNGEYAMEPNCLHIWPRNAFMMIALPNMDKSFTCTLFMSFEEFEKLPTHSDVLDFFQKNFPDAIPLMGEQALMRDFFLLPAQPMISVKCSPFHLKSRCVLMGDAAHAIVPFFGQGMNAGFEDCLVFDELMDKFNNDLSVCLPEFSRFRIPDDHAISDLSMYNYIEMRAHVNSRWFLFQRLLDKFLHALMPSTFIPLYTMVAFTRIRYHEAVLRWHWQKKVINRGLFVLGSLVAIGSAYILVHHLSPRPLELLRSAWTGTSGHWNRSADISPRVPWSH
Protocol: as §1, §2, §3, §4

Rat KMO = molecular target: T3, Rat KMO (Rattus norvegicus, UniProt O88867); assay: Rat KMO enzyme (cell-free) assay, NADPH consumption by absorbance; type: biochemical
T3 construct: The GST-tagged full-length KMO (1-478) baculovirus vector contained a thrombin cleavage site; GST (thrombin cleavage site between GST and KMO) (N, cleaved yes); made in house; host or cells: Spodoptera frugiperda (Sf9), baculovirus
T3 sequence (O88867 whole entry): as above
Protocol: (§5) Human KMO was purchased from Origene and used to assay compounds. Full-length Rat-KMO purified for crystallisation was used to assay compounds. Full-length Rat-KMO-expressing membranes were used for mutant assays (Fig. 4b) only. […] Images were taken using Odyssey CLX (LI-COR Biosciences) and quantified using ImageStudio2.0 (LI-COR Biosciences) software.
(§6) Test compounds were dissolved in DMSO and diluted with assay buffer containing 50 mM HEPES, 2 mM MgCl2, 0.5 mM EGTA, 1 mM DTT, 0.05% Tween20 and 0.005% of antiform SI (pH = about 7.9) to prepare a 4% DMSO solution. […] After 5 min of pre-incubation, reactions were started by adding 10 μL of substrate solution containing 2.4 mM kynurenine and 0.6 mM NADPH. Reactions were run for 90 min at 30 °C, then terminated by adding 5 μL of stop buffer (40 mM maleimide, 2 mM WST-9 and 0.1 mM 1-methoky PMS in water). […] Liposomal assays were performed in the same manner except that the composition of the assay buffer was changed (phosphate-buffered saline, 2 mM MgCl2, 1 mM DTT, 0.05% Tween 20).
as §4

hKMO = molecular target: T4, hKMO (Homo sapiens, UniProt O15229); assay: Human KMO enzyme (cell-free) assay, NADPH consumption by absorbance; type: biochemical
T4 construct: purchased Origene
T4 sequence (O15229 whole entry): as the sequence (O15229 whole entry) above
Protocol: as §5, §6, §4

- inhibition at 0.03 µM ([1]; HEK293, conc 0.03 μM, duplicates, read-out: inhibition rate, Hs-KMO cellular assay (Figure 1C source data)): 51.3%
- inhibition at 0.1 µM ([1]; HEK293, conc 0.1 μM, duplicates, read-out: inhibition rate, Hs-KMO cellular assay (Figure 1C source data)): 76.7%
- inhibition at 0.3 µM ([1]; HEK293, conc 0.3 μM, duplicates, read-out: inhibition rate, Hs-KMO cellular assay (Figure 1C source data)): 92.2%
- inhibition at 1 µM ([1]; HEK293, conc 1 μM, duplicates, read-out: inhibition rate, Hs-KMO cellular assay (Figure 1C source data)): 102%
- inhibition at 3 µM ([1]; HEK293, conc 3 μM, duplicates, read-out: inhibition rate, Hs-KMO cellular assay (Figure 1C source data)): 104%
- inhibition at 10 µM ([1]; HEK293, conc 10 μM, duplicates, read-out: inhibition rate, Hs-KMO cellular assay (Figure 1C source data)): 104%
- inhibition at 30 µM ([1]; HEK293, conc 30 μM, duplicates, read-out: inhibition rate, Hs-KMO cellular assay (Figure 1C source data)): 105%
- IC50 ([1]; HEK293 cells expressing human KMO, LC/MS, read-out: Human cell-based assay IC50): 0.03 µM
- inhibition rate, Hs-KMO cellular assay (Figure 1C source data) ([1]; conc 0.03 μM, duplicates): 49.094%
- inhibition rate, Hs-KMO cellular assay (Figure 1C source data) ([1]; conc 0.1 μM, duplicates): 80.095%
- inhibition rate, Hs-KMO cellular assay (Figure 1C source data) ([1]; conc 0.3 μM, duplicates): 94.377%
- inhibition rate, Hs-KMO cellular assay (Figure 1C source data) ([1]; conc 1 μM, duplicates): 98.875%
- inhibition rate, Hs-KMO cellular assay (Figure 1C source data) ([1]; conc 3 μM, duplicates): 103.175%
- inhibition rate, Hs-KMO cellular assay (Figure 1C source data) ([1]; conc 10 μM, duplicates): 102.973%
- inhibition rate, Hs-KMO cellular assay (Figure 1C source data) ([1]; conc 30 μM, duplicates): 104.572%
- inhibition at 0.1 µM ([2]; HEK293, conc 0.1 μM, duplicates, read-out: inhibition rate, Rat-KMO cellular assay (Figure 1D source data)): 6.06%
- inhibition at 0.3 µM ([2]; HEK293, conc 0.3 μM, duplicates, read-out: inhibition rate, Rat-KMO cellular assay (Figure 1D source data)): 28.6%
- inhibition at 1 µM ([2]; HEK293, conc 1 μM, duplicates, read-out: inhibition rate, Rat-KMO cellular assay (Figure 1D source data)): 29.2%
- inhibition at 3 µM ([2]; HEK293, conc 3 μM, duplicates, read-out: inhibition rate, Rat-KMO cellular assay (Figure 1D source data)): 55.7%
- inhibition at 10 µM ([2]; HEK293, conc 10 μM, duplicates, read-out: inhibition rate, Rat-KMO cellular assay (Figure 1D source data)): 81.2%
- inhibition at 30 µM ([2]; HEK293, conc 30 μM, duplicates, read-out: inhibition rate, Rat-KMO cellular assay (Figure 1D source data)): 94.7%
- IC50 ([2]; HEK293 cells expressing rat KMO, LC/MS): 1.9 µM
- inhibition rate, Rat-KMO cellular assay (Figure 1D source data) ([2]; conc 0.1 μM, duplicates): 5.770%
- inhibition rate, Rat-KMO cellular assay (Figure 1D source data) ([2]; conc 0.3 μM, duplicates): 28.560%
- inhibition rate, Rat-KMO cellular assay (Figure 1D source data) ([2]; conc 1 μM, duplicates): 33.805%
- inhibition rate, Rat-KMO cellular assay (Figure 1D source data) ([2]; conc 3 μM, duplicates): 50.255%
- inhibition rate, Rat-KMO cellular assay (Figure 1D source data) ([2]; conc 10 μM, duplicates): 82.819%
- inhibition rate, Rat-KMO cellular assay (Figure 1D source data) ([2]; conc 30 μM, duplicates): 94.698%
- IC50 (Rat KMO; cell-free enzyme assay, high kynurenine): 0.15 µM
- inhibition rate, Rat-KMO cell-free assay (Figure 1B source data) (Rat KMO; conc 0.03 μM, duplicates): 20.744%
- inhibition at 0.03 µM (Rat KMO; conc 0.03 μM, duplicates, read-out: inhibition rate, Rat-KMO cell-free assay (Figure 1B source data)): 18%
- inhibition rate, Rat-KMO cell-free assay (Figure 1B source data) (Rat KMO; conc 0.1 μM, duplicates): 47.122%
- inhibition at 0.1 µM (Rat KMO; conc 0.1 μM, duplicates, read-out: inhibition rate, Rat-KMO cell-free assay (Figure 1B source data)): 46%
- inhibition rate, Rat-KMO cell-free assay (Figure 1B source data) (Rat KMO; conc 0.3 μM, duplicates): 63.717%
- inhibition at 0.3 µM (Rat KMO; conc 0.3 μM, duplicates, read-out: inhibition rate, Rat-KMO cell-free assay (Figure 1B source data)): 62.8%
- inhibition rate, Rat-KMO cell-free assay (Figure 1B source data) (Rat KMO; conc 1 μM, duplicates): 81.108%
- inhibition at 1 µM (Rat KMO; conc 1 μM, duplicates, read-out: inhibition rate, Rat-KMO cell-free assay (Figure 1B source data)): 84.3%
- inhibition rate, Rat-KMO cell-free assay (Figure 1B source data) (Rat KMO; conc 3 μM, duplicates): 90.360%
- inhibition at 3 µM (Rat KMO; conc 3 μM, duplicates, read-out: inhibition rate, Rat-KMO cell-free assay (Figure 1B source data)): 87.2%
- inhibition rate, Rat-KMO cell-free assay (Figure 1B source data) (Rat KMO; conc 10 μM, duplicates): 90.175%
- inhibition at 10 µM (Rat KMO; conc 10 μM, duplicates, read-out: inhibition rate, Rat-KMO cell-free assay (Figure 1B source data)): 91.4%
- inhibition rate, Rat-KMO cell-free assay (Figure 1B source data) (Rat KMO; conc 30 μM, duplicates): 94.310%
- inhibition at 30 µM (Rat KMO; conc 30 μM, duplicates, read-out: inhibition rate, Rat-KMO cell-free assay (Figure 1B source data)): 91.7%
- inhibition rate, Rat-KMO cell-free assay (Figure 1B source data) (Rat KMO; conc 100 μM, duplicates): 101.150%
- inhibition at 100 µM (Rat KMO; conc 100 μM, duplicates, read-out: inhibition rate, Rat-KMO cell-free assay (Figure 1B source data)): 89.9%
- IC50 (hKMO; cell-free enzyme assay, high kynurenine, read-out: Human KMO IC50): 0.0071 µM
- inhibition rate, Hs-KMO cell-free assay (Figure 1A source data) (hKMO; conc 0.0003 μM, duplicates): 0.420% and -1.736%
- inhibition rate, Hs-KMO cell-free assay (Figure 1A source data) (hKMO; conc 0.001 μM, duplicates): 9.914%
- inhibition at 0.001 µM (hKMO; conc 0.001 μM, duplicates, read-out: inhibition rate, Hs-KMO cell-free assay (Figure 1A source data)): 12.1%
- inhibition rate, Hs-KMO cell-free assay (Figure 1A source data) (hKMO; conc 0.003 μM, duplicates): 25.289%
- inhibition at 0.003 µM (hKMO; conc 0.003 μM, duplicates, read-out: inhibition rate, Hs-KMO cell-free assay (Figure 1A source data)): 27.2%
- inhibition rate, Hs-KMO cell-free assay (Figure 1A source data) (hKMO; conc 0.01 μM, duplicates): 59.651%
- inhibition at 0.01 µM (hKMO; conc 0.01 μM, duplicates, read-out: inhibition rate, Hs-KMO cell-free assay (Figure 1A source data)): 57.4%
- inhibition rate, Hs-KMO cell-free assay (Figure 1A source data) (hKMO; conc 0.03 μM, duplicates): 87.349%
- inhibition at 0.03 µM (hKMO; conc 0.03 μM, duplicates, read-out: inhibition rate, Hs-KMO cell-free assay (Figure 1A source data)): 85.6%
- inhibition rate, Hs-KMO cell-free assay (Figure 1A source data) (hKMO; conc 0.1 μM, duplicates): 95.022%
- inhibition at 0.1 µM (hKMO; conc 0.1 μM, duplicates, read-out: inhibition rate, Hs-KMO cell-free assay (Figure 1A source data)): 96.5%
- inhibition rate, Hs-KMO cell-free assay (Figure 1A source data) (hKMO; conc 0.3 μM, duplicates): 105.860%
- inhibition at 0.3 µM (hKMO; conc 0.3 μM, duplicates, read-out: inhibition rate, Hs-KMO cell-free assay (Figure 1A source data)): 100%
- inhibition rate, Hs-KMO cell-free assay (Figure 1A source data) (hKMO; conc 1 μM, duplicates): 100.287%
- inhibition at 1 µM (hKMO; conc 1 μM, duplicates, read-out: inhibition rate, Hs-KMO cell-free assay (Figure 1A source data)): 102%
Compound: Cc1cnn(-c2cccc(C(=O)O)c2)c1-c1ccc(Cl)c(F)c1 [Compound 2]
